Results taken from ChEMBL document CHEMBL1132744, “Synthesis and antiproliferative activity of some benzimidazole-4,7-dione derivatives” (Bioorg Med Chem Lett, 2000).

Columns and labels:
MCF7 = assay: Antiproliferative activity of compound was evaluated on MCF-7 cells from human breast adenocarcinoma; format: functional; conditions: read-out: ID50 (the source's name)
[1] = Antiproliferative activity of compound was evaluated on SupT1 cells from human non-Hodgkin lymphoma; format: functional; conditions: SUP-T1, read-out: ID50 (the source's name)
[2] = Antiproliferative activity of compound was evaluated on Molt3 cells from human lymphoblastic leukemia; format: functional; conditions: MOLT-3, read-out: ID50 (the source's name)
[3] = The compound was evaluated for cytotoxicity against VERO cells using Dye test at a concentration 11.2 uM; format: cell-based; conditions: chlorocebus sabaeus, read-out: Cellular growth
Vero [4] = assay: The compound was evaluated for cytotoxicity against VERO cells using Lowry's test at a concentration 0.7 uM; format: cell-based; conditions: chlorocebus sabaeus
Vero [5] = assay: The compound was evaluated for cytotoxicity against VERO cells using Lowry's test at a concentration 11.2 uM; format: cell-based; conditions: chlorocebus sabaeus
[6] = The compound was evaluated for cytotoxicity against VERO cells using Dye test at a concentration 0.7 uM; format: cell-based; conditions: chlorocebus sabaeus, read-out: Cellular growth
Vero [7] = assay: The compound was evaluated for cytotoxicity against VERO cells using Lowry's test at a concentration 90 uM; format: cell-based; conditions: chlorocebus sabaeus
[8] = The compound was evaluated for cytotoxicity against VERO cells using Dye test at a concentration 90 uM; format: cell-based; conditions: chlorocebus sabaeus, read-out: Cellular growth

Row | IC50 (MCF7) | SMILES | IC50 [1] | IC50 [2] | viability at 11.2 µM [3] | Protein content (Vero [4]) | Protein content (Vero [5]) | viability at 0.7 µM [6] | Protein content (Vero [7]) | viability at 90 µM [8]
1 | > 90 µM | CSc1nc2c([nH]1)C(=O)C(=N)C=C2O | 10.8 µM | 60.4 µM | – | – | – | – | – | –
2 | 62.8 µM | CSc1nc2c([nH]1)C(=O)C=C(Br)C2=O | 5.03 µM | 32.1 µM | – | – | – | – | – | –
3 | > 90 µM | O=C1C(Br)=CC(=O)c2[nH]c(-c3ccccn3)nc21 | 5.57 µM | 7.52 µM | – | – | – | – | – | –
4 | > 90 µM | CSc1nc2c([nH]1)C(=O)/C(=N/CCCl)C=C2O | 15.3 µM | 30.6 µM | – | – | – | – | – | –
5 | 40.3 µM | CSc1nc2c([nH]1)C(=O)C(Br)=C(Br)C2=O | 6.26 µM | 12 µM | – | – | – | – | – | –
6 | 62.6 µM | CSc1nc2c([nH]1)C(=O)C=CC2=O | 2.87 µM | 1.32 µM | 101% | 102.9% | 86.4% | 99.3% | 68.9% | 73.6%
7 | > 90 µM | CSc1nc2c([nH]1)C(=O)C=C(N(C)C)C2=O | 38 µM | 18.3 µM | – | – | – | – | – | –
8 | 26.4 µM | COC1=CC(=O)c2[nH]c(-c3ccccn3)nc2C1=O | 2.57 µM | 2.63 µM | 71.2% | 97.2% | 81.3% | 114% | 16.2% | 16.4%
9 | > 90 µM | CN(C)C1=CC(=O)c2[nH]c(-c3ccccn3)nc2C1=O | 17.4 µM | 22.4 µM | – | – | – | – | – | –
10 | > 90 µM | NC1=CC(=O)c2[nH]c(-c3ccccn3)nc2C1=O | 29.3 µM | 39.7 µM | – | – | – | – | – | –
11 | 36 µM | COC1=CC(=O)c2[nH]c(SC)nc2C1=O | 5.07 µM | 20.8 µM | – | – | – | – | – | –
12 | 42.9 µM | CO[C@@]12[C@H](COC(N)=O)C3=C(C(=O)C(C)=C(N)C3=O)N1C[C@@H]1N[C@@H]12 [MITOMYCIN] | < 0.7 µM | 2.66 µM | – | – | – | – | – | –
